Common to all, as to format: functional
The subject of test [1] is MCF7. The test is described as follows: Cytotoxicity against human MCF7 cells assessed as growth inhibition at 50 uM by SRB assay. The note with it: read-out: GI. A general note: The SRB assay estimates cell density from bound dye.
Test [2] concerns A549. Description: Cytotoxicity against human A549 cells assessed as growth inhibition at 10 uM by SRB assay. The settings on record: read-out: GI.
Test [3] concerns HeLa. Description: Cytotoxicity against human HeLa cells assessed as growth inhibition at 10 uM by SRB assay. The note with it: read-out: GI.
The nature of test [4]: Cytotoxicity against human prostate cancer cells assessed as growth inhibition at 10 uM by SRB assay. The note with it: Cancer cell lines, read-out: GI.
The test system of test [5] is MCF7. The test is described as follows: Cytotoxicity against human MCF7 cells assessed as growth inhibition at 10 uM by SRB assay. The settings on record: read-out: GI.
Test [6] is described as follows: Cytotoxicity against human IMR32 cells assessed as growth inhibition at 50 uM by SRB assay. The note with it: IMR-32, read-out: GI.
Test [7] concerns HeLa. Description: Cytotoxicity against human HeLa cells assessed as growth inhibition at 50 uM by SRB assay. The note with it: read-out: GI.
Test [8] can be described thus: Cytotoxicity against human prostate cancer cells assessed as growth inhibition at 50 uM by SRB assay. The settings on record: Cancer cell lines, read-out: GI.
A short description of test [9]: Cytotoxicity against human IMR32 cells assessed as growth inhibition at 10 uM by SRB assay. The settings on record: IMR-32, read-out: GI.
Test [10] has as its system A549. Description: Cytotoxicity against human A549 cells assessed as growth inhibition at 50 uM by SRB assay. The note with it: read-out: GI.

The text below walks through data of ChEMBL document CHEMBL3098009, “Synthesis of a novel series of artemisinin dimers with potent anticancer activity involving Sonogashira cross-coupling reaction” (2014).

On to `C[C@@H]1CC[C@H]2[C@@H](C)C(OCCC#Cc3ccc(C#CCCOC4O[C@@H]5O[C@@]6(C)CC[C@H]7[C@H](C)CC[C@@H]([C@H]4C)[C@@]57OO6)s3)O[C@@H]3O[C@@]4(C)CC[C@@H]1[C@]32OO4` (stereo partly specified), for which the inhibition of growth at 50 µM was found to be 41% with MCF7 [1]; 28% in test [6]; 52% with HeLa [7]; 53% in test [8]; 78% in the test on A549 [10]. Besides, the inhibition of growth at 10 µM in the test on A549 [2] turned out to be 77%; in the test on HeLa [3], 51%; in test [4], 49%; with MCF7 [5], 31%; in test [9], 26%.
As to `C[C@@H]1CC[C@H]2[C@@H](C)C(OCCC#Cc3cccc(C#CCCOC4O[C@@H]5O[C@@]6(C)CC[C@H]7[C@H](C)CC[C@@H]([C@H]4C)[C@@]57OO6)c3)O[C@@H]3O[C@@]4(C)CC[C@@H]1[C@]32OO4` (stereo partly specified), the inhibition of growth at 10 µM was 60% with A549 [2], 45% in test [4] and 10% in test [9]. The inhibition of growth at 50 µM turned out to be 30% in [6], 60% in test [8] and 65% in the test with A549 [10].
Take `C[C@@H]1CC[C@H]2[C@@H](C)C(OCC#Cc3ccc(C#CCOC4O[C@@H]5O[C@@]6(C)CC[C@H]7[C@H](C)CC[C@@H]([C@H]4C)[C@@]57OO6)cc3)O[C@@H]3O[C@@]4(C)CC[C@@H]1[C@]32OO4` (stereo partly specified): the inhibition of growth at 50 µM was 45% in the test on MCF7 [1]; 56% in [6]; 43% in the test with HeLa [7]; 68% in test [8]; 69% with A549 [10]. Further, the inhibition of growth at 10 µM amounted to 67% in the test on A549 [2]; 34% in the test with HeLa [3]; 56% in [4]; 36% with MCF7 [5]; 50% in test [9].
Turning to `C[C@@H]1CC[C@H]2[C@@H](C)C(OCC#Cc3ccc(-c4ccc(C#CCOC5O[C@@H]6O[C@@]7(C)CC[C@H]8[C@H](C)CC[C@@H]([C@H]5C)[C@@]68OO7)cc4)cc3)O[C@@H]3O[C@@]4(C)CC[C@@H]1[C@]32OO4` (stereo partly specified), the inhibition of growth at 50 µM amounted to 32% in the test on MCF7 [1]; 43% in [6]; 57% with HeLa [7]; 68% in [8]; 69% in the test with A549 [10]. Moreover, the inhibition of growth at 10 µM in the test on A549 [2] was 64%; in the test with HeLa [3] it was 47%; in [4], 46%; in the test with MCF7 [5], 30%; in test [9], 34%.
For the compound `C[C@@H]1CC[C@H]2[C@@H](C)C(OCC#Cc3ccc(C#CCOC4O[C@@H]5O[C@@]6(C)CC[C@H]7[C@H](C)CC[C@@H]([C@H]4C)[C@@]57OO6)s3)O[C@@H]3O[C@@]4(C)CC[C@@H]1[C@]32OO4` (stereo partly specified), the inhibition of growth at 50 µM in the test with MCF7 [1] turned out to be 29%; in test [6], 83%; in the test with HeLa [7], 37%; in test [8] it was 47%; with A549 [10] it was 73%. The inhibition of growth at 10 µM came to 70% with A549 [2]; 35% in the test with HeLa [3]; 44% in [4]; 25% in the test with MCF7 [5]; 54% in [9].
For `C[C@@H]1CC[C@H]2[C@@H](C)C(OCC#Cc3cccc(C#CCOC4O[C@@H]5O[C@@]6(C)CC[C@H]7[C@H](C)CC[C@@H]([C@H]4C)[C@@]57OO6)c3)O[C@@H]3O[C@@]4(C)CC[C@@H]1[C@]32OO4` (stereo partly specified), the inhibition of growth at 10 µM in the test with A549 [2] came out at 65%; in test [4] it was 50%; in [9] it was 40%. The values for the inhibition of growth at 50 µM (in test [6]; in test [8]; in the test on A549 [10]) were 45%, 65% and 70%, respectively.
In the case of `C[C@@H]1CC[C@H]2[C@@H](C)C(OCCC#Cc3ccc(C#CCCOC4O[C@@H]5O[C@@]6(C)CC[C@H]7[C@H](C)CC[C@@H]([C@H]4C)[C@@]57OO6)cc3)O[C@@H]3O[C@@]4(C)CC[C@@H]1[C@]32OO4` (stereo partly specified), the inhibition of growth at 50 µM in the test on MCF7 [1] was found to be 41%; in test [6], 37%; in the test on HeLa [7], 24%; in test [8] it was 55%; in the test on A549 [10], 72%. Also, the inhibition of growth at 10 µM in the test on A549 [2] is 56%; in the test on HeLa [3], 20%; in [4], 48%; with MCF7 [5], 26%; in [9], 11%.
As to `C[C@@H]1CC[C@H]2[C@@H](C)C(OCCC#Cc3ccc(-c4ccc(C#CCCOC5O[C@@H]6O[C@@]7(C)CC[C@H]8[C@H](C)CC[C@@H]([C@H]5C)[C@@]68OO7)cc4)cc3)O[C@@H]3O[C@@]4(C)CC[C@@H]1[C@]32OO4` (stereo partly specified), the inhibition of growth at 50 µM in the test with MCF7 [1] stood at 38%; in test [6], 27%; in the test with HeLa [7], 50%; in [8] it was 47%; in the test on A549 [10] it was 74%. Moreover, the inhibition of growth at 10 µM amounted to 67% with A549 [2]; 18% in the test with HeLa [3]; 41% in [4]; 24% with MCF7 [5]; 4% in test [9].
On to `C[C@@H]1CC[C@H]2[C@@H](C)C(=O)O[C@@H]3O[C@@]4(C)CC[C@@H]1[C@]32OO4` [ARTEMISININ], for which the inhibition of growth at 50 µM in the test with MCF7 [1] is 36%; in test [6], 34%; in the test on HeLa [7] it was 66%; in test [8], 40%; with A549 [10], 38%. Besides, the inhibition of growth at 10 µM worked out at 26% in the test on A549 [2]; 51% with HeLa [3]; 35% in test [4]; 25% with MCF7 [5]; 24% in test [9].
On to `COc1cccc2c1C(=O)c1c(O)c3c(c(O)c1C2=O)C[C@@](O)(C(=O)CO)C[C@@H]3O[C@H]1C[C@H](N)[C@H](O)[C@H](C)O1` [DOXORUBICIN], for which the inhibition of growth at 10 µM in test [9] turned out to be 69%.
Regarding `O=c1[nH]cc(F)c(=O)[nH]1` [FLUOROURACIL], the inhibition of growth at 10 µM with HeLa [3] was determined as 62%.
In the case of `CO[C@@]12[C@H](COC(N)=O)C3=C(C(=O)C(C)=C(N)C3=O)N1C[C@@H]1N[C@@H]12` [MITOMYCIN], the inhibition of growth at 10 µM in [4] stood at 65%.
With `CC(=O)O[C@H]1C(=O)[C@@]2(C)[C@H]([C@H](OC(=O)c3ccccc3)[C@]3(O)C[C@H](OC(=O)[C@H](O)[C@@H](NC(=O)c4ccccc4)c4ccccc4)C(C)=C1C3(C)C)[C@]1(OC(C)=O)CO[C@@H]1C[C@@H]2O` [PACLITAXEL], in the test on A549 [2], the inhibition of growth at 10 µM was 56%.
